From patent US5594024A, “Centrally actig substituted phenylazacycloalkanes” (priority 1995, dated 1997)
Like-named read-outs stand apart in the source and are kept apart here.

What was measured:
in vivo = assay: in vivo; set-up: species or system rat (male Sprague-Dawley); conditions: rat
Method: This is in contrast to the actions of the preferential dopamine autoreceptor antagonists (+)-AJ76 and (+)-UH232 5. The blood levels of (±)-34 were measured after oral (40 μmol/kg) and iv (5 μmol/kg) administration of the drug to male Sprague-Dawley rats (250-300 g) that were cannulated with catheters in the jugular vein and the arteria carotis. The levels of (±)-34 were measured in whole blood by means of GC-MS. […] The oral availability is considerably better than the values obtained for (+)-UH232 and (+)-AJ76 (approximately 6 and 3%, respectively).

[1] = system: central dopamine receptors; conditions: Hacksell et al., J. Med. Chem., 24, 1475 (1981); cited from earlier work
[2] = system: d-amphetamine-induced hyperactivity; assay: d-Amphetamine-induced hyperactivity in habituated rats; type: in vivo, rat; conditions: test compound 14 mg/kg, sc; d-amphetamine 5 mg/kg
DA receptor [3] = conditions: after NSD1015; Johansson et al.; cited from earlier work
non-pretreated rats [4] = conditions: Johansson et al.; cited from earlier work
DA receptor [5] = conditions: no NSD1015 treatment; Johansson et al.; cited from earlier work
[6] = comparison values, source not given; cited from earlier work
D3 = conditions: Sokoloff, et al., Nature, 347 146-51 (1990); series of classical and atypical neuroleptics; cited from earlier work
D2 receptors = target: T1, D2 receptors (Rattus norvegicus, UniProt P61169); assay: D2 antagonist binding ([3H]-spiperone), rat striatum
T1 construct: Preparation of rat striatal membranes for (3H)-spiperone; from tissue; host or cells: rat striatum (striatal membranes)
T1 sequence (P61169 whole entry): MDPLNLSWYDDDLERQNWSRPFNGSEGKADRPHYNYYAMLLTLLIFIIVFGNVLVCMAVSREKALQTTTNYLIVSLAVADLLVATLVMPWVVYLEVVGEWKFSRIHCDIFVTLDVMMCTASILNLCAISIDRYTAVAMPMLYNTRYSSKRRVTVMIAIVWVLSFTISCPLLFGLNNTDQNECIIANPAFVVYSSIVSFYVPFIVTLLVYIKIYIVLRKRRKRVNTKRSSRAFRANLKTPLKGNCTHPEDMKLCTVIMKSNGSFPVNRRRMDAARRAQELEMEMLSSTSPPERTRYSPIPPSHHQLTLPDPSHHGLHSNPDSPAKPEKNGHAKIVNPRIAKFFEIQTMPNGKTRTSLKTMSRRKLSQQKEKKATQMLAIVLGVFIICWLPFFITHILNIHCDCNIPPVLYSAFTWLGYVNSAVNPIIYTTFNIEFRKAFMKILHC
Method: D2 antagonist binding. Preparation of rat striatal membranes for (3H)-spiperone (specific activity 21-24 Ci/mmol) binding was carried out in a similar manner as described for D1-binding, Hyttel et al., J. Neural. Transm., 68, 171 (1987).
IC50 values were calculated by semi-log plot and linear regression analysis.

5-HT1A = target: T2, 5-HT1A (Rattus norvegicus, UniProt P19327); assay: 5-HT1A radioligand binding ([3H]-8-OH-DPAT); set-up: species or system rat (male Sprague-Dawley); conditions: [3H]-8-OH-DPAT, rat cortex; read-out: in vitro binding IC50, 5HT1A
T2 construct: the whole brain with the exception of the brainstem and cerebellum was rapidly removed; from tissue
T2 sequence (P19327 1-422): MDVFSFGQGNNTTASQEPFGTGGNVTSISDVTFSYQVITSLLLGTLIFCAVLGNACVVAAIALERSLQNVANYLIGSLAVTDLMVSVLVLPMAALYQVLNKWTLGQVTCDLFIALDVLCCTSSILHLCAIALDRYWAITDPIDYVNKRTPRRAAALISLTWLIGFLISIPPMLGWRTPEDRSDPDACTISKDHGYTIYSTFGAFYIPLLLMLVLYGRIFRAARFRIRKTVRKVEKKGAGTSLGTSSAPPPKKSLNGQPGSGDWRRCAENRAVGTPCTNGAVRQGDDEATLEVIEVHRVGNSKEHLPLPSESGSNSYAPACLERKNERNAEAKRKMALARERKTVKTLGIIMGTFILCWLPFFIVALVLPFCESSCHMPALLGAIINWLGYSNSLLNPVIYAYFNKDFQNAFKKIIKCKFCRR
Method: ^b Serotonin 5HT1A ([^3 H]-8OH-DPAT, agonist) rat cortex.
5-HT1A radioligand binding. Male Sprague-Dawley rats (160-225 g) were killed by decapitation and the whole brain with the exception of the brainstem and cerebellum was rapidly removed, weighed and chilled in ice-cold 0.9% NaCl. Each brain was homogenized (Ultra-Turrax, 20 s) in 10 mL ice-cold 50 mM Tris buffer (pH 8.0 at 25° C.) containing 120 mM NaCl, 4 mM CaCl2 and 4 mM MgCl2 and centrifuged at 20,000 g's at 4° C. for 10 minutes. Pellets were resuspended in 10 mL fresh buffer and preincubated for 10 minutes in a 37° C. waterbath and then recentrifuged. Final pellets were homogenized in 100 volumes (w/v) of Tris buffer (as described above) containing 10 μM pargyline. The incubation tubes were kept on ice in triplicates and received 100 μL drug solution in water (or water for total binding) and 1000 μL membrane suspension (corresponds to 10 mg original tissue). The binding experiment was initiated by addition of 100 μL of (3H)-8-OH-DPAT (specific activity 143-158 Ci/mmol) in ascorbic acid (the final incubation concentration was 1 nM (3H)-8-OH-DPAT in 0.1% ascorbic acid). After incubation for 15 minutes at 37° C. the reaction was terminated by separation of the free radioligand from bound by rapid vacuum filtration using a cell harvester equipment (O. M. Teknik, Denmark). The tubes were rinsed with 4 mL and the filters (Whatman GF/F 25 mm) were washed twice with 4 mL ice-cold 0.9% NaCl.
The radioactivity of the filters was measured in a liquid scintillation counter (efficiency 41%) in 5 mL Picofluor®. Specific binding (70-75% of total binding) was defined as the radioactivity displaced by 10 μM 5-HT. IC50 values were calculated by semi-log plot and linear regression analysis.

5-HT receptor = assay: 5-HTP accumulation (5-HT synthesis rate) in non-pretreated rats after NSD 1015; type: in vivo, rat (male Sprague-Dawley)
Method: observations are commented to the right. After the session the rats were
accumulation in the NErich cortical regions and 5HTP in the limbic
(§1) Injection volumes were 5 mL/kg.

DA receptor [7] = assay: DA metabolism (DOPAC, HVA levels) in habituated rats; type: in vivo, rat (male Sprague-Dawley); conditions: for response vs control in vivo at 100 µmol/kg: Rattus norvegicus, sc, 1 h
Method: (§2) Footnotes Table 3. The rats were habituated to the motility meters 60 min
The rats were immediately killed after the activity session, striata
and limbic levels of DOPAC and 5HIAA were measured by means of HPLCEC. *p
In the experiments with habituated rats no NSD was administered and the animals were killed one hour after drug administration. […] The levels were expressed as % of controls (DOPAC and 5-HIAA see Table 3). The in vivo brain microdialysis experiments were performed in conscious rats as described by Waters et al., Eur. J. Pharm., 187, 425-34 (1990).
as §1
After the activity session the rats were killed and the brain levels of HVA and DOPAC were measured (data are expressed as means ±SEM).

habituated rats = assay: Locomotor activity and behavior in habituated rats; type: in vivo, rat (male Sprague-Dawley); conditions: habituated rats
Method: as §2
prior to the activity session.
as §1
Locomotor activity was measured in rats which were habituated 60 minutes to the activity meters before drug injection. The activity was measured for the subsequent 60 minutes and expressed as % of controls (means ±SEM, n=4).

[8] = system: central dopamine receptors; assay: Locomotor activity and DA synthesis in reserpinized rats; type: in vivo, rat
DA receptor [9] = assay: DOPA accumulation (DA synthesis rate) in non-pretreated rats after NSD 1015
non-pretreated rats [10] = assay: Locomotor activity and gross behavior in non-habituated (non-pretreated) rats; conditions: non-pretreated rats
dopamine autoreceptors = assay: GBL-model (DA synthesis rate; presynaptic dopamine autoreceptors); type: in vivo, rat; conditions: apomorphine […], sc; GBL 750 mg/kg, i.p.
Text: The effects on DOPA accumulation in the GBL-model is considered to reflect an event at the presynaptic dopamine autoreceptors (for further details, see Svensson et al., Nunyn-Schmiedeberg's Arch. Pharm., 334, 234(1986)).

SMILES: CCCN1CCCC(c2cccc(C#N)c2)C1 (racemic) [(±)-34, 3-(3-cyanophenyl-N-n-propyl)piperidine]
- half-life (in vivo; iv): ~3 h
- bioavailability (in vivo; po, oral bioavailability): ~78%
- direct receptor agonistic effects in reserpinized rats [1]: no direct receptor agonistic effects

SMILES: CCCN[C@@H]1CCc2c(OC)cccc2[C@@H]1C [(+)-AJ76, (+)-cis-1S,2R-5-methoxy-1-methyl-2-(N-n-propylamino)tetralin]
- effect on activation induced by high dose d-amphetamine [2]: clearly blocked the stimulation
- Dopa accumulation in normal animals (DA receptor [3]): raise the Dopa accumulation
- locomotor activity (photocell motility meters) (non-pretreated rats [4]): increase the locomotor activity
- levels of the DA metabolites DOPAC and HVA (DA receptor [5]): raise the levels of the DA metabolites DOPAC and HVA
- oral availability [6]: approximately 3%
- preference for the D3 site (D3): highest preference for the D3 site

SMILES: CCCN(CCC)[C@@H]1CCc2c(OC)cccc2[C@@H]1C [(+)-UH232, (+)-cis-1S,2R-5-methoxy-1-methyl-2-(N,N-di-n-propylamino)tetralin]
- Dopa accumulation in normal animals (DA receptor [3]): raise the Dopa accumulation
- locomotor activity (photocell motility meters) (non-pretreated rats [4]): increase the locomotor activity
- levels of the DA metabolites DOPAC and HVA (DA receptor [5]): raise the levels of the DA metabolites DOPAC and HVA
- oral availability [6]: approximately 6%
- preference for the D3 site (D3): highest preference for the D3 site

SMILES: CCCN1CCC[C@H](c2cccc(C#N)c2)C1 [R-(+)-34, R-(+)-3-(3-Cyanophenyl-N-n-propyl)piperidine]
- affinity for D2 receptors (in words) (D2 receptors; (3H)-Spiperone binding): essentially no affinity for D2 receptors
- IC50 (D2 receptors; read-out: in vitro binding IC50, D2 -spip, [3H]-spiperone, rat striatum): 100 µM
- IC50 (5-HT1A): 14 µM
- 5-HTP acc Limbic Region (5-HT receptor; 50 po): 99 ± 3 % of saline controls
- 5-HTP acc Limbic Region (5-HT receptor; 50 sc): 82 ± 1 % of saline controls
- response vs control in vivo at 100 µmol/kg (DA receptor [7]; read-out: DOPAC limbic): 120 ± 5%
- response vs control in vivo at 100 µmol/kg (DA receptor [7]; read-out: DOPAC striatum): 117 ± 3%
- limbic DOPAC levels (in words) (DA receptor [7]; rat, in vivo): only weakly elevated limbic DOPAC
- Behavioral observations (habituated rats; 100 μmol/kg sc): Activation
- locomotor activity in habituated rats (in words) (habituated rats): stimulates the locomotor activity in habituated rats
- motor activity in reserpinized rats ([8]; 50 μmol/kg, sc, reserpine 5 mg/kg, 18 h before): 6±2 counts/30 min
- DA synthesis rate / DOPA accumulation in reserpinized rats (in words) ([8]; reserpinized rats): failed to produce locomotor stimulation or to affect the DA synthesis rate in reserpinized rats
- locomotor stimulation in reserpinized rats (in words) ([8]; reserpinized rats): failed to activate the reserpinized rats
- locomotor stimulation in reserpinized rats (in words) ([8]; reserpinized rats, listed as (R)-34): failed to produce locomotor stimulation
- DOPA acc Cortex (DA receptor [9]; 50 po): 103 ± 9 % of saline controls
- DOPA acc Stratium (DA receptor [9]; 50 po): 172 ± 8 % of saline controls
- DOPA acc Cortex (DA receptor [9]; 50 sc): 145 ± 11 % of saline controls
- DOPA acc Stratium (DA receptor [9]; 50 sc): 281 ± 11 % of saline controls
- Gross Behavioral Observations (non-pretreated rats [10]; 50 po): No change
- Motor Act. (non-pretreated rats [10]; 50 po, 30 min): 133 ± 14 % of saline controls
- Gross Behavioral Observations (non-pretreated rats [10]; 50 sc): stimulat.

SMILES: CN1CCc2cccc3c2[C@H]1Cc1ccc(O)c(O)c1-3 [apomorphine, reference compound]
- effect on GBL-elevated limbic and striatal DA synthesis rate (dopamine autoreceptors): completely reversed
